Source: ChEMBL document CHEMBL4699480 (J Med Chem, 2020)
The source made the active and inactive calls. The calls are words filed in the database; no cut-off is given here.

Key:
[1] = Inhibition of Escherichia coli WecA incubated for 2 hrs using UDP-Glucosamine-C6-FITC substrate by reversed-phase HPLC analysis; set-up: species or system Escherichia coli BL21
[2] = Inhibition of N-terminal His9-tagged Methanocaldococcus jannaschii DSM 2661 AglH incubated for 2 hrs using UDP-GlcN-Cg-FITC and alpha-dihydroundecap-renyl phosphate by reversed-phase HPLC analysis
[3] = target: T1, UDP-N-acetylglucosamine--dolichyl-phosphate N-acetylglucosaminephosphotransferase (Homo sapiens, UniProt Q9H3H5); assay: Inhibition of human DPAGT1 expressed in HEK293 (Expi293) cells incubated for 2 hrs using UDP-GlcN-Cg-FITC and alpha-dihydroundecap-renyl phosphate by reversed-phase HPLC analysis; assay type: cell-based
T1 sequence (Q9H3H5 whole entry): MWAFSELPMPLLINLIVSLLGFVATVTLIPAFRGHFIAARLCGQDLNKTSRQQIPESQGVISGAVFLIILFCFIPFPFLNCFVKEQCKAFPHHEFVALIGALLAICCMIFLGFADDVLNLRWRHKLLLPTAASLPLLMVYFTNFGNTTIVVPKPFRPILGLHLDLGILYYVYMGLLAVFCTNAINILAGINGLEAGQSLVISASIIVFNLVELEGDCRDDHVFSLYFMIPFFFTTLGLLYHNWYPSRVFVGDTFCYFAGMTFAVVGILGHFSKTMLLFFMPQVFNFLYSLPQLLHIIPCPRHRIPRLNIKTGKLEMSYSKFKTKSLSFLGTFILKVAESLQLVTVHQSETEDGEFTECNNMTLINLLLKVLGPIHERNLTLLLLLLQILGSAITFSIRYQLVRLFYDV

KB = assay: Cytotoxicity in human KB cells assessed as reduction in cell viability incubated for 72 hrs by MTT assay; assay type: functional, cell-based
SiHa [4] = assay: Cytotoxicity in human SiHa cells assessed as reduction in cell viability incubated for 72 hrs by MTT assay; assay type: functional, cell-based
HCT-116 [5] = assay: Cytotoxicity in human HCT-116 cells assessed as reduction in cell viability incubated for 72 hrs by MTT assay; assay type: functional, cell-based; conditions: HCT-116, 72 h
CAPAN-1 [6] = assay: Cytotoxicity in human CAPAN-1 cells assessed as reduction in cell viability incubated for 72 hrs by MTT assay; assay type: functional, cell-based; conditions: CAPAN-1, 72 h
PANC-1 [7] = assay: Cytotoxicity in human PANC-1 cells assessed as reduction in cell viability incubated for 72 hrs by MTT assay; assay type: functional, cell-based; conditions: PANC-1, 72 h
ASPC1 = assay: Cytotoxicity in human ASPC1 cells assessed as reduction in cell viability incubated for 72 hrs by MTT assay; assay type: functional, cell-based; conditions: ASPC1, 72 h
[8] = Cytotoxicity in human PD002 cells assessed as reduction in cell viability incubated for 72 hrs by MTT assay; assay type: functional, cell-based; conditions: PD002, 72 h
[9] = Cytotoxicity in human hTERT-HPNE cells assessed as reduction in cell viability incubated for 72 hrs by MTT assay; assay type: cell-based
Vero = assay: Cytotoxicity in African green monkey Vero cells assessed as reduction in cell viability incubated for 72 hrs by MTT assay; assay type: cell-based; conditions: Chlorocebus sabaeus
[10] = Inhibition of cell proliferation in human PD002 cells incubated for 72 hrs; assay type: functional
[11] = target: T2, UDP-N-acetylglucosamine--dolichyl-phosphate N-acetylglucosaminephosphotransferase (Homo sapiens) (UniProt Q9H3H5); assay: Inhibition of DPAGT1 in human PD002 cells assessed as reduction in snail protein expression incubated for 24 hrs by immunofluorescence staining assay; assay type: cell-based
T2 sequence (whole entry): T1 sequence (Q9H3H5 whole entry)

[12] = target: T2, UDP-N-acetylglucosamine--dolichyl-phosphate N-acetylglucosaminephosphotransferase (Homo sapiens); assay: Inhibition of DPAGT1 in human PANC-1 cells assessed as reduction in snail protein expression incubated for 24 hrs by immunofluorescence staining assay; assay type: cell-based
[13] = target: T2, UDP-N-acetylglucosamine--dolichyl-phosphate N-acetylglucosaminephosphotransferase (Homo sapiens); assay: Inhibition of DPAGT1 in human SiHa cells assessed as reduction in snail protein expression incubated for 24 hrs by Western blot assay; assay type: cell-based
[14] = target: T2, UDP-N-acetylglucosamine--dolichyl-phosphate N-acetylglucosaminephosphotransferase (Homo sapiens); assay: Inhibition of DPAGT1 in human PD002 cells assessed as reduction in snail protein expression incubated for 24 hrs by Western blot analysis; assay type: cell-based
[15] = target: T2, UDP-N-acetylglucosamine--dolichyl-phosphate N-acetylglucosaminephosphotransferase (Homo sapiens); assay: Inhibition of DPAGT1 in human PANC-1 cells assessed as reduction in snail protein expression incubated for 24 hrs by Western blot analysis; assay type: cell-based
PANC-1 [16] = assay: Inhibition of E-cadherin protein expression in human PANC-1 cells at 0 to 2 uM incubated for 24 hrs by Western blot analysis; assay type: functional, cell-based; conditions: dose microM 0-2, time […]
[17] = Synergistic cytotoxicity in human PD002 cells assessed as FIC at 0.1 uM incubated for 72 hrs in presence of 0.63 uM paclitaxel by IncuCyte live cell analysis imaging system based assay; assay type: functional
[18] = Synergistic cytotoxicity in human PD002 cells assessed as FIC at 0.1 uM incubated for 72 hrs in presence of […] paclitaxel by IncuCyte live cell analysis imaging system based assay; assay type: functional
[19] = Synergistic cytotoxicity in human PD002 cells assessed as FIC at 0.2 uM incubated for 72 hrs in presence of 0.0049 uM paclitaxel by IncuCyte live cell analysis imaging system based assay; assay type: functional
[20] = Synergistic cytotoxicity in human PD002 cells assessed as FIC at 0.2 uM incubated for 72 hrs in presence of 0.020 uM paclitaxel by IncuCyte live cell analysis imaging system based assay; assay type: functional
[21] = Synergistic cytotoxicity in human PD002 cells assessed as FIC at 0.2 uM incubated for 72 hrs in presence of 0.031 uM paclitaxel by IncuCyte live cell analysis imaging system based assay; assay type: functional
[22] = Synergistic cytotoxicity in human PD002 cells assessed as FIC at 2 uM incubated for 72 hrs in presence of 0.020 uM paclitaxel by IncuCyte live cell analysis imaging system based assay; assay type: functional
[23] = Synergistic cytotoxicity in human PD002 cells assessed as FIC at 2 uM incubated for 72 hrs in presence of 0.31 uM paclitaxel by IncuCyte live cell analysis imaging system based assay; assay type: functional
PANC-1 [24] = assay: Inhibition of DPAGT1 protein expression in human PANC-1 cells at 0.2 uM incubated for 24 hrs by Western blot analysis; assay type: functional, cell-based
CAPAN-1 [25] = assay: Inhibition of DPAGT1 protein expression in human CAPAN-1 cells at 0.2 uM incubated for 24 hrs by Western blot analysis; assay type: functional, cell-based
SiHa [26] = assay: Inhibition of DPAGT1 protein expression in human SiHa cells at 0.2 uM incubated for 24 hrs by Western blot analysis; assay type: functional, cell-based
[27] = Inhibition of DPAGT1 protein expression in human HCT-116 cells assessed as DPAGT1 protein level at 0.1 to 20 uM incubated for 24 hrs by Western blot analysis; assay type: functional; set-up: scale not given: the % may be the effect or the level left; conditions: dose microM 0.1-20
PD002 = assay: Inhibition of DPAGT1 mRNA expression in human PD002 cells at 0 to 10 uM incubated for 24 hrs by RT-qPCR analysis; assay type: functional, cell-based; conditions: dose microM 0-10, time […]
HCT-116 [28] = assay: Inhibition of DPAGT1 protein expression in human HCT-116 cells at 0.1 to 20 uM incubated for 72 hrs by immunofluorescence assay; conditions: dose microM 0.1-20, time 72.0 hrs
[29] = Cytotoxicity in human PD002 cells assessed as phase area confluence level at 50 uM incubated for 72 hrs by IncuCyte live cell analysis imaging system based assay (reference value: 70%)

CO[C@H]1[C@@H](O)[C@H](n2ccc(=O)[nH]c2=O)O[C@@H]1[C@@H](O[C@H]1OC(C(=O)NCc2ccc(N3CCC(Oc4ccc(OC(F)(F)F)cc4)CC3)cc2)=C[C@H](O)[C@@H]1O)C(N)=O
IC50 [1]: 100 nM
IC50 [2]: 150 nM
IC50 [3]: 200 nM
IC50 (KB): 35 µM
IC50 (SiHa [4]): 15 µM
IC50 (HCT-116 [5]): 15 µM
IC50 (CAPAN-1 [6]): 30 µM
IC50 (PANC-1 [7]): 35 µM
IC50 (ASPC1): 25 µM
IC50 [8]: 35 µM
IC50 [9]: > 50 µM
IC50 (Vero): > 50 µM
inhibition (INH) [10]: 20%
inhibition [11]: Active
inhibition [12]: Active
inhibition [13]: Active
inhibition [14]: Active
inhibition [15]: Active
inhibition (PANC-1 [16]): inactive
FIC [17]: 0.5
FIC [18]: 0.13
FIC [19]: 0.0096
FIC [20]: 0.021
FIC [21]: 0.26
FIC [22]: 0.021
FIC [23]: 0.26
inhibition (PANC-1 [24]): Active
inhibition (CAPAN-1 [25]): Active
inhibition (SiHa [26]): Active
Activity [27]: 20%
inhibition (PD002): inactive
inhibition (HCT-116 [28]): inactive
Activity [29]: 10%
